# Data: patent US12145913B2, “Inhibition of Olig2 activity” (Curtana Pharmaceuticals, Inc., priority 2016, dated 2024)
# Test system: GBM8 human glioblastoma cells
# Assay: GBM8 viability assay (Cell Titer Glo)
# Type: cell-based
# Settings: 72 h, Table 1, 3 days incubation, luminescence
# Description: Cell culture medium was prepared from a NSA proliferation kit (Neurocult) and NeuroCult supplements (Stemcell Tech Cat. #05751) and treated with 20 μL of 10 μg/mL rh EGF, 10 μL of 10 μg/mL rh bFGF and 10 μL of 0.2% Heparin. In this medium, human glioblastoma cells were cultured in ultra-low attachment tissue culture flasks until 1×10^6 cells ml was achieved (GBM4 and GBM8 are distinct neurosphere cell cultures derived from these human patient tissues). GBM4 and GBM8 cells were dissociated and 10 mL of media containing 4000 human glioblastoma cells per 90 μL were transferred to an ultra-low binding 96-well plate and incubated at 37° C. overnight. On the following day, 10 μL of a 1% DMSO solution of test compound in assay medium was added to wells containing the cell suspension and the mixture incubated at 37° C. for 3 days. At this time, the plate was removed from the incubator and allowed to reach room temperature. After about 30 minutes, 50 μL of Cell Titer Glo solution was added to each well and the plate shaken for 1 minute at low speed. After 10 minutes luminescence was recorded using a Tecan Safire2 reader.
# Reduction in luminescence compared to DMSO only control wells was used to determine the percentage inhibition of cell growth. IC50s were calculated using the % inhibition of luminescence for serial dilutions of compounds fitted to a 4-parameter fit within the Prism (San Diego) curve fitting program. Tables 1 (compounds 3-188) and 2 (compounds 190-212) show the GBM4 IC50 and GBM8 IC50 for compounds described herein.
row,Compound,IC50 [µM]
1,"COC(=O)CCNc1cc(C)nc(NC(=O)Nc2ccc3ccccc3c2)n1 [Compound 25, methyl 3-((6-methyl-2-(3-(naphthalen-2-yl)ureido)pyrimidin-4-yl)amino)propanoate]",< 0.5
2,"CNCCCNc1cc(C)nc(NC(=O)Nc2ccc3cnccc3c2)n1 [Compound 64, 1-(isoquinolin-6-yl)-3-(4-methyl-6-((3-(methylamino)propyl)amino)pyrimidin-2-yl)urea]",< 0.5
3,"Cc1cc(NCCN(C)C)nc(NC(=O)Nc2ccc3ccncc3c2)n1 [Compound 115, 1-(4-((2-(dimethylamino)ethyl)amino)-6-methylpyrimidin-2-yl)-3-(isoquinolin-7-yl)urea]",0.5 to 5
4,Cc1cc(NCCOCCO)nc(NC(=O)Nc2ccc3ccccc3c2)n1 [Compound 13],< 0.5
5,"CNCCCCNc1cc(C)nc(NC(=O)Nc2ccc3ccccc3c2)n1 [Compound 33, 1-(4-methyl-6-((4-(methylamino)butyl)amino)pyrimidin-2-yl)-3-(naphthalen-2-yl)urea]",< 0.5
6,"Cc1cc(NCCCN(C)C)nc(NC(=O)Nc2ccc(OC(F)(F)F)c(C)c2)n1 [Compound 153, 1-(4-((3-(dimethylamino)propyl)amino)-6-methylpyrimidin-2-yl)-3-(3-methyl-4-(trifluoromethoxy)phenyl)urea]",< 0.5
7,"Cc1cc(NCCNS(C)(=O)=O)nc(NC(=O)Nc2ccc3cnccc3c2)n1 [Compound 75, N-(2-((2-(3-(isoquinolin-6-yl)ureido)-6-methylpyrimidin-4-yl)amino)ethyl)methanesulfonamide]",< 0.5
8,"Cc1cc(NCCNS(C)(=O)=O)nc(NC(=O)Nc2ccc(Cl)c(Cl)c2)n1 [Compound 123, N-(2-((2-(3-(3,4-dichlorophenyl)ureido)-6-methylpyrimidin-4-yl)amino)ethyl)methanesulfonamide]",< 0.5
9,"CN(C)CCCNc1ccnc(NC(=O)Nc2ccc(OC(F)(F)F)cc2)n1 [Compound 163, 1-(4-((3-(dimethylamino)propyl)amino)pyrimidin-2-yl)-3-(4-(trifluoromethoxy)phenyl)urea]",0.5 to 5
10,"Cc1cc(NCCCN)nc(NC(=O)Nc2ccc3ccccc3n2)n1 [Compound 99, 1-(4-((3-aminopropyl)amino)-6-methylpyrimidin-2-yl)-3-(quinolin-2-yl)urea]",0.5 to 5
11,"O=C(Nc1ccc2ccccc2c1)Nc1nccc(NO)n1 [Compound 161, 1-(4-(hydroxyamino)pyrimidin-2-yl)-3-(naphthalen-2-yl)urea]",0.5 to 5
12,"CC(=O)NCCNc1cc(C)nc(NC(=O)Nc2ccc(OC(C)C)cc2)n1 [Compound 140, N-(2-((2-(3-(4-isopropoxyphenyl)ureido)-6-methylpyrimidin-4-yl)amino)ethyl)acetamide]",< 0.5
13,Cc1cc(NCC(O)CO)nc(NC(=O)Nc2ccc3ccccc3c2)n1 (stereo not drawn) [Compound 18],< 0.5
14,"Cc1cc(NCCCN(C)C)nc(NC(=O)Nc2ccc3ccccc3n2)n1 [Compound 96, 1-(4-((3-(dimethylamino)propyl)amino)-6-methylpyrimidin-2-yl)-3-(quinolin-2-yl)urea]",0.5 to 5
15,"Cc1cc(NCCC(=O)N(C)C)nc(NC(=O)Nc2ccc3ccccc3c2)n1 [Compound 42, N,N-dimethyl-3-((6-methyl-2-(3-(naphthalen-2-yl)ureido)pyrimidin-4-yl)amino)propanamide]",0.5 to 5
16,"Cc1cc(NCCCN)nc(NC(=O)Nc2ccc3occc3c2)n1 [Compound 83, 1-(4-((3-aminopropyl)amino)-6-methylpyrimidin-2-yl)-3-(benzofuran-5-yl)urea]",< 0.5
17,"CC(C)c1cc(NCCCN(C)C)nc(NC(=O)Nc2ccc3ccccc3c2)n1 [Compound 188, 1-(4-((3-(dimethylamino)propyl)amino)-6-isopropylpyrimidin-2-yl)-3-(naphthalen-2-yl)urea]",0.5 to 5
18,"Cc1cc(NCCCN(C)C)nc(NC(=O)Nc2ccc3ccncc3c2)n1 [Compound 114, 1-(4-((3-(dimethylamino)propyl)amino)-6-methylpyrimidin-2-yl)-3-(isoquinolin-7-yl)urea]",< 0.5
19,"CC(=O)NCCCNc1cc(C)nc(NC(=O)Nc2ccc3ccccc3c2)n1 [Compound 34, N-(3-((6-methyl-2-(3-(naphthalen-2-yl)ureido)pyrimidin-4-yl)amino)propyl)acetamide]",< 0.5
20,"Cc1cc(NCCCN(C)C)nc(NC(=O)Nc2ccc3occc3c2)n1 [Compound 80, 1-(benzofuran-5-yl)-3-(4-((3-(dimethylamino)propyl)amino)-6-methylpyrimidin-2-yl)urea]",< 0.5
21,Cc1cc(N(C)C)nc(NC(=O)Nc2ccc3ccccc3c2)n1 [Compound 21],0.5 to 5
22,Cc1cc(NCCCc2ccccn2)nc(NC(=O)Nc2ccc3ccccc3c2)n1 [Compound 16],< 0.5
23,Cc1cc(NCCc2ccccn2)nc(NC(=O)Nc2ccc3ccccc3c2)n1 [Compound 15],5 to 30

# Second part, the compound after the results:
row,IC50 [µM],Compound
1,< 0.5,"Cc1cc(NCCNS(C)(=O)=O)nc(NC(=O)Nc2ccc(OC(F)(F)F)c(Cl)c2)n1 [Compound 151, N-(2-((2-(3-(3-chloro-4-(trifluoromethoxy)phenyl)ureido)-6-methylpyrimidin-4-yl)amino)ethyl)methanesulfonamide]"
2,< 0.5,"Cc1cc(NCC2CCCNC2)nc(NC(=O)Nc2ccc3ccccc3c2)n1 (stereo not drawn) [Compound 32, 1-(4-methyl-6-((piperidin-3-ylmethyl)amino)pyrimidin-2-yl)-3-(naphthalen-2-yl)urea]"
3,0.5 to 5,"Cc1cc(NCCCN(C)C)nc(NC(=O)Nc2cccc(Oc3ccccc3)c2)n1 [Compound 128, 1-(4-((3-(dimethylamino)propyl)amino)-6-methylpyrimidin-2-yl)-3-(3-phenoxyphenyl)urea]"
4,< 0.5,"Cc1cc(NCCCN(C)C)nc(NC(=O)Nc2ccc(Oc3ccccc3)cc2)n1 [Compound 133, 1-(4-((3-(dimethylamino)propyl)amino)-6-methylpyrimidin-2-yl)-3-(4-phenoxyphenyl)urea]"
5,< 0.5,CCNc1cc(C)nc(NC(=O)Nc2ccc3cnccc3c2)n1 [Compound 54]
6,< 0.5,"CN(C)CCCNc1ccnc(NC(=O)Nc2ccc3ccccc3c2)n1 [Compound 160, 1-(4-((3-(dimethylamino)propyl)amino)pyrimidin-2-yl)-3-(naphthalen-2-yl)urea]"
7,0.5 to 5,"CC(=O)NCCNc1cc(C)nc(NC(=O)Nc2ccc3ccccc3n2)n1 [Compound 101, N-(2-((6-methyl-2-(3-(quinolin-2-yl)ureido)pyrimidin-4-yl)amino)ethyl)acetamide]"
8,< 0.5,"Cc1cc(NCCN)nc(NC(=O)Nc2ccc3occc3c2)n1 [Compound 82, 1-(4-((2-aminoethyl)amino)-6-methylpyrimidin-2-yl)-3-(benzofuran-5-yl)urea]"
9,< 0.5,CCCCNc1cc(C)nc(NC(=O)Nc2ccc3cnccc3c2)n1 [Compound 56]
10,< 0.5,"CC(=O)NCCCNc1cc(C)nc(NC(=O)Nc2ccc3ccncc3c2)n1 [Compound 118, N-(3-((2-(3-(isoquinolin-7-yl)ureido)-6-methylpyrimidin-4-yl)amino)propyl)acetamide]"
11,< 0.5,"Cc1cc(NCCOCCN(C)C)nc(NC(=O)Nc2ccc3ccccc3c2)n1 [Compound 28, 1-(4-((2-(2-(dimethylamino)ethoxy)ethyl)amino)-6-methylpyrimidin-2-yl)-3-(naphthalen-2-yl)urea]"
12,< 0.5,"Cc1cc(N)nc(NC(=O)Nc2ccc3ccccc3c2)n1 [Compound 47, 1-(4-amino-6-methylpyrimidin-2-yl)-3-(naphthalen-2-yl)urea]"
13,< 0.5,"Cc1cc(NCCCNS(C)(=O)=O)nc(NC(=O)Nc2ccc3ccccc3c2)n1 [Compound 37, N-(3-((6-methyl-2-(3-(naphthalen-2-yl)ureido)pyrimidin-4-yl)amino)propyl)methanesulfonamide]"
14,0.5 to 5,"CC(=O)NCCCNc1cc(C)nc(NC(=O)Nc2cc3ccccc3cn2)n1 [Compound 92, N-(3-((2-(3-(isoquinolin-3-yl)ureido)-6-methylpyrimidin-4-yl)amino)propyl)acetamide]"
15,< 0.5,"Cc1cc(NCCCN(C)C)nc(NC(=O)Nc2ccc(-c3ccccc3)cc2)n1 [Compound 125, 1-([1,1′-biphenyl]-4-yl)-3-(4-((3-(dimethylamino)propyl)amino)-6-methylpyrimidin-2-yl)urea]"

# Same assay, conditions: 72 h, Table 2, 3 days incubation, luminescence
row,IC50 [µM],Compound
1,0.5 to 5,"O=C(Nc1ccc(OC(F)(F)F)cc1)Nc1nc(NO)cc(C2CC2)n1 [Compound 212, 1-(4-cyclopropyl-6-(hydroxyamino)pyrimidin-2-yl)-3-(4-(trifluoromethoxy)phenyl)urea]"
2,0.5 to 5,"CC(C)c1cc(NCCCN(C)C)nc(NC(=O)Nc2ccc(OC(F)(F)F)cc2)n1 [Compound 194, 1-(4-((3-(dimethylamino)propyl)amino)-6-isopropylpyrimidin-2-yl)-3-(4-(trifluoromethoxy)phenyl)urea]"
3,0.5 to 5,"CC(C)c1cc(N)nc(NC(=O)Nc2ccc(OC(F)(F)F)cc2)n1 [Compound 196, 1-(4-amino-6-isopropylpyrimidin-2-yl)-3-(4-(trifluoro-methoxy)phenyl)urea]"
4,0.5 to 5,"CN(C)CCCNc1cc(C2CC2)nc(NC(=O)Nc2ccc(Cl)c(Cl)c2)n1 [Compound 204, 1-(4-cyclopropyl-6-((3-(dimethylamino)propyl)amino)-pyrimidin-2-yl)-3-(3,4-dichlorophenyl)urea]"
